# In patent publication US6498125B2, “Pyridine ketones useful as herbicides” (Syngenta Participations AG, priority 1998, dated 2002):
# System: Monocotyledonous and dicotyledonous test plants
# Test: Example B2: post-emergence herbicidal action, 2 kg of AS/ha
# Assay type: in vivo
# Set-up: key: 1 = complete damage, 9 = no effect
# Conditions: test plant Avena, 4- to 6-leaf stage, about 18 days, scale 1-9
# Protocol: Monocotyledonous and dicotyledonous test plants are grown in plastic pots with standard soil in a greenhouse and, in the 4- to 6-leaf stage, are sprayed with an aqueous suspension of the test substances of the formula 1, prepared from a 25% wettable powder (Example F3, b) according to WO 97134485) or with an emulsion of the test substances of the formula I, prepared from a 25% emulsion concentrate (Example F1, c) according to WO 97/34485), corresponding to a dosage of 2 kg of AS/ha (500 l of water/ha). The test plants are then grown further under optimum conditions in a greenhouse. After a test period of about 18 days, the test is evaluated with a nine-level scale of rating (1=complete damage, 9=no effect). Ratings of 1 to 4 (in particular 1 to 3) mean good to very good herbicidal action. In this test, the compounds of the formula I show strong herbicidal action.
row,SMILES,"post-emergence action rating, Avena"
1,Cc1nc(C(F)(F)F)ccc1C(=O)C1=C(Sc2ccccc2)C2CCC(C2)C1=O (centres unmarked) [Compound 1.381],2
2,CC(=O)OC1=C(C(=O)c2ccc(C(F)(F)F)nc2C)C(=O)C2CCC1C2 (centres unmarked) [Compound 1.401],2
3,Cc1nc(C(F)(F)F)ccc1C(=O)C1=C(OC(=O)c2ccccc2)C2CCC(C2)C1=O (centres unmarked) [Compound 1.402],2
4,Cc1nc(C(F)(F)F)ccc1C(=O)C1=C(OC(=O)C2CC2)C2CCC(C2)C1=O (centres unmarked) [Compound 1.403],2

# Same assay, conditions: test plant Setaria, 4- to 6-leaf stage, about 18 days, scale 1-9
row,SMILES,"post-emergence action rating, Setaria"
1,Cc1nc(C(F)(F)F)ccc1C(=O)C1=C(Sc2ccccc2)C2CCC(C2)C1=O (centres unmarked) [Compound 1.381],2
2,CC(=O)OC1=C(C(=O)c2ccc(C(F)(F)F)nc2C)C(=O)C2CCC1C2 (centres unmarked) [Compound 1.401],2
3,Cc1nc(C(F)(F)F)ccc1C(=O)C1=C(OC(=O)c2ccccc2)C2CCC(C2)C1=O (centres unmarked) [Compound 1.402],2
4,Cc1nc(C(F)(F)F)ccc1C(=O)C1=C(OC(=O)C2CC2)C2CCC(C2)C1=O (centres unmarked) [Compound 1.403],2

# Same assay, conditions: test plant Sinapis, 4- to 6-leaf stage, about 18 days, scale 1-9
row,SMILES,"post-emergence action rating, Sinapis"
1,Cc1nc(C(F)(F)F)ccc1C(=O)C1=C(Sc2ccccc2)C2CCC(C2)C1=O (centres unmarked) [Compound 1.381],2
2,CC(=O)OC1=C(C(=O)c2ccc(C(F)(F)F)nc2C)C(=O)C2CCC1C2 (centres unmarked) [Compound 1.401],2
3,Cc1nc(C(F)(F)F)ccc1C(=O)C1=C(OC(=O)c2ccccc2)C2CCC(C2)C1=O (centres unmarked) [Compound 1.402],1
4,Cc1nc(C(F)(F)F)ccc1C(=O)C1=C(OC(=O)C2CC2)C2CCC(C2)C1=O (centres unmarked) [Compound 1.403],1

# Same assay, conditions: test plant Solanum, 4- to 6-leaf stage, about 18 days, scale 1-9
row,SMILES,"post-emergence action rating, Solanum"
1,Cc1nc(C(F)(F)F)ccc1C(=O)C1=C(Sc2ccccc2)C2CCC(C2)C1=O (centres unmarked) [Compound 1.381],2
2,CC(=O)OC1=C(C(=O)c2ccc(C(F)(F)F)nc2C)C(=O)C2CCC1C2 (centres unmarked) [Compound 1.401],2
3,Cc1nc(C(F)(F)F)ccc1C(=O)C1=C(OC(=O)c2ccccc2)C2CCC(C2)C1=O (centres unmarked) [Compound 1.402],2
4,Cc1nc(C(F)(F)F)ccc1C(=O)C1=C(OC(=O)C2CC2)C2CCC(C2)C1=O (centres unmarked) [Compound 1.403],2

# Same assay, conditions: test plant Stellaria, 4- to 6-leaf stage, about 18 days, scale 1-9
row,SMILES,"post-emergence action rating, Stellaria"
1,Cc1nc(C(F)(F)F)ccc1C(=O)C1=C(Sc2ccccc2)C2CCC(C2)C1=O (centres unmarked) [Compound 1.381],2
2,CC(=O)OC1=C(C(=O)c2ccc(C(F)(F)F)nc2C)C(=O)C2CCC1C2 (centres unmarked) [Compound 1.401],2
3,Cc1nc(C(F)(F)F)ccc1C(=O)C1=C(OC(=O)c2ccccc2)C2CCC(C2)C1=O (centres unmarked) [Compound 1.402],2
4,Cc1nc(C(F)(F)F)ccc1C(=O)C1=C(OC(=O)C2CC2)C2CCC(C2)C1=O (centres unmarked) [Compound 1.403],2

# System: Monocotyledonous and dicotyledonous test plants
# Test: Example B1: pre-emergence herbicidal action, 2 kg of AS/ha
# Assay type: in vivo
# Conditions: test plant Avena, 3 weeks, scale 1-9
# Protocol: Monocotyledonous and dicotyledonous test plants are sown in standard soil in plastic pots. Immediately after sowing, the test substances are sprayed on (500 l of water/ha) as an aqueous suspension (prepared from a 25% wettable powder (Example F3, b) according to WO 97/34485) or emulsion (prepared from a 25% emulsion concentrate (Example F1, c)), corresponding to a dosage of 2 kg of AS/ha. The test plants are then grown under optimum conditions in a greenhouse. After a test period of 3 weeks, the test is evaluated with a nine-level scale of ratings (1=complete damage, 9=no effect). Ratings of 1 to 4 (in particular 1 to 3) mean good to very good herbicidal action.
row,SMILES,"pre-emergence action rating, Avena"
1,Cc1nc(C(F)(F)F)ccc1C(=O)C1=C(Sc2ccccc2)C2CCC(C2)C1=O (centres unmarked) [Compound 1.381],4
2,CC(=O)OC1=C(C(=O)c2ccc(C(F)(F)F)nc2C)C(=O)C2CCC1C2 (centres unmarked) [Compound 1.401],2
3,Cc1nc(C(F)(F)F)ccc1C(=O)C1=C(OC(=O)c2ccccc2)C2CCC(C2)C1=O (centres unmarked) [Compound 1.402],2
4,Cc1nc(C(F)(F)F)ccc1C(=O)C1=C(OC(=O)C2CC2)C2CCC(C2)C1=O (centres unmarked) [Compound 1.403],2

# Same assay, conditions: test plant Cyperus, 3 weeks, scale 1-9
row,SMILES,"pre-emergence action rating, Cyperus"
1,Cc1nc(C(F)(F)F)ccc1C(=O)C1=C(Sc2ccccc2)C2CCC(C2)C1=O (centres unmarked) [Compound 1.381],1
2,CC(=O)OC1=C(C(=O)c2ccc(C(F)(F)F)nc2C)C(=O)C2CCC1C2 (centres unmarked) [Compound 1.401],1
3,Cc1nc(C(F)(F)F)ccc1C(=O)C1=C(OC(=O)c2ccccc2)C2CCC(C2)C1=O (centres unmarked) [Compound 1.402],1
4,Cc1nc(C(F)(F)F)ccc1C(=O)C1=C(OC(=O)C2CC2)C2CCC(C2)C1=O (centres unmarked) [Compound 1.403],1

# Same assay, conditions: test plant Setaria, 3 weeks, scale 1-9
row,SMILES,"pre-emergence action rating, Setaria"
1,Cc1nc(C(F)(F)F)ccc1C(=O)C1=C(Sc2ccccc2)C2CCC(C2)C1=O (centres unmarked) [Compound 1.381],2
2,CC(=O)OC1=C(C(=O)c2ccc(C(F)(F)F)nc2C)C(=O)C2CCC1C2 (centres unmarked) [Compound 1.401],1
3,Cc1nc(C(F)(F)F)ccc1C(=O)C1=C(OC(=O)c2ccccc2)C2CCC(C2)C1=O (centres unmarked) [Compound 1.402],1
4,Cc1nc(C(F)(F)F)ccc1C(=O)C1=C(OC(=O)C2CC2)C2CCC(C2)C1=O (centres unmarked) [Compound 1.403],1

# Same assay, conditions: test plant Sinapis, 3 weeks, scale 1-9
row,SMILES,"pre-emergence action rating, Sinapis"
1,Cc1nc(C(F)(F)F)ccc1C(=O)C1=C(Sc2ccccc2)C2CCC(C2)C1=O (centres unmarked) [Compound 1.381],2
2,CC(=O)OC1=C(C(=O)c2ccc(C(F)(F)F)nc2C)C(=O)C2CCC1C2 (centres unmarked) [Compound 1.401],2
3,Cc1nc(C(F)(F)F)ccc1C(=O)C1=C(OC(=O)c2ccccc2)C2CCC(C2)C1=O (centres unmarked) [Compound 1.402],2
4,Cc1nc(C(F)(F)F)ccc1C(=O)C1=C(OC(=O)C2CC2)C2CCC(C2)C1=O (centres unmarked) [Compound 1.403],1

# Same assay, conditions: test plant Solanum, 3 weeks, scale 1-9
row,SMILES,"pre-emergence action rating, Solanum"
1,Cc1nc(C(F)(F)F)ccc1C(=O)C1=C(Sc2ccccc2)C2CCC(C2)C1=O (centres unmarked) [Compound 1.381],1
2,CC(=O)OC1=C(C(=O)c2ccc(C(F)(F)F)nc2C)C(=O)C2CCC1C2 (centres unmarked) [Compound 1.401],1
3,Cc1nc(C(F)(F)F)ccc1C(=O)C1=C(OC(=O)c2ccccc2)C2CCC(C2)C1=O (centres unmarked) [Compound 1.402],1
4,Cc1nc(C(F)(F)F)ccc1C(=O)C1=C(OC(=O)C2CC2)C2CCC(C2)C1=O (centres unmarked) [Compound 1.403],1

# Same assay, conditions: test plant Stellaria, 3 weeks, scale 1-9
row,SMILES,"pre-emergence action rating, Stellaria"
1,Cc1nc(C(F)(F)F)ccc1C(=O)C1=C(Sc2ccccc2)C2CCC(C2)C1=O (centres unmarked) [Compound 1.381],1
2,CC(=O)OC1=C(C(=O)c2ccc(C(F)(F)F)nc2C)C(=O)C2CCC1C2 (centres unmarked) [Compound 1.401],2
3,Cc1nc(C(F)(F)F)ccc1C(=O)C1=C(OC(=O)c2ccccc2)C2CCC(C2)C1=O (centres unmarked) [Compound 1.402],2
4,Cc1nc(C(F)(F)F)ccc1C(=O)C1=C(OC(=O)C2CC2)C2CCC(C2)C1=O (centres unmarked) [Compound 1.403],2
